The values below come from patent US20090131513A1, “ANTI-INFLAMMATORY MODALITIES” (Novogen Research Pty Ltd., priority 2005, published 2009).

The target of one data set is T1, TX synthase (TXS) (Homo sapiens, UniProt P24557).
T1 construct: endogenous in cells; host or cells: undifferentiated U937 cells
T1 sequence (P24557 1-533): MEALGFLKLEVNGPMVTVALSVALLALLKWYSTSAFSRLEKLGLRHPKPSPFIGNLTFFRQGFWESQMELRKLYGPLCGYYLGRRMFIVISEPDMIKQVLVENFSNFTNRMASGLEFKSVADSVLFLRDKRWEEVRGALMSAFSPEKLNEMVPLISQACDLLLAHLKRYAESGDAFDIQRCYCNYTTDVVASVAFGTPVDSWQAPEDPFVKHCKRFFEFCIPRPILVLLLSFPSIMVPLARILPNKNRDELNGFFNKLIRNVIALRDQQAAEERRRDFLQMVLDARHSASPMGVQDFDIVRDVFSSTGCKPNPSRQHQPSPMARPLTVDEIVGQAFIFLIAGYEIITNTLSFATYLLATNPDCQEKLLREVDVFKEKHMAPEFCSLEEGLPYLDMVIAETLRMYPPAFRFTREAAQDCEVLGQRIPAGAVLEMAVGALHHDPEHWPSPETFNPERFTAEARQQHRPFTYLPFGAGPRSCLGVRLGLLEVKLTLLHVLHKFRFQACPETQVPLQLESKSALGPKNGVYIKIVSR
In words: TXB2 synthesis following addition of exogenous PGH2 to U937 cells. Format: cell-based. To be noted: 1, 10, 100 μM, undifferentiated U937 cells, PGH2 5 μM. As for the experimental part: To examine effects of test compounds directly on TX synthase (TXS), a different assay system was used. Whereas arachidonic acid (AA) is the substrate for COX, PGH2 is the substrate for TX synthase. To examine directly the effect of these compounds on TXS, exogenous ? elow:
Test compounds at 0 μM, 1 μM, 10 μM and 100 μM (in DMSO) were incubated with undifferentiated U937 cells (6×10^6/ml) for 30 min at 37° C., after which PGH2 (5 μM) was added. After incubation for 10 min, the reaction was terminated by centrifugation and the supernatants were collected and TXB2 production was measured in triplicate by RIA. ANOVA followed by Newman-Keuls multiple comparisons test was used to examine differences between doses and the control values. A statistical significance level of 0.05 was used and differences from control values are indicated by an asterisk (*).

Data set [1] deals with eicosanoid synthesis by the inflamed colon. The data set can be described thus: PGE2 and TXB2 production by cultured colons from DSS colitis mice (Experiment 4). Format: in vivo. The procedure: Groups of mice (n=5) were dosed once daily with Compound 11 mg/kg or vehicle throughout the experiment, and killed either on day 6, 9 or 13. Colons were removed, opened longitudinally and washed in PBS with pen/strep (100 U/ml/100 μg/ml, Invitrogen) with added fungizone (2.5 ug/ml, Invitrogen). They were then cut into small portions and approximately 100 mg colon was placed into one well of a 24-well plate either in the presence or absence of ConA (10 μg/ml, Sigma) containing 1 ml modified RPMIc (pen/strep and fungizone as above) for 18-24 hours. Supernatant was collected, centrifuged and stored at −80° C. PGE2 and TXB2 in the culture supernatants were measured in triplicate by ELISA (Cayman Chemical).

Data set [2] deals with contractile response of the aortic ring to noradrenaline. In words: Vasodilatory activity in the rat aortic ring assay. To be noted: test compound 1 μg/ml. Set-up: species or system rat (Sprague-Dawley). As for the experimental part: The vasodilatory capacity of test compounds was examined ex vivo using the rat aortic ring assay.
Male Sprague-Dawley rats (250±50 g) were euthanized with 80% CO2 and 20% O2. The thoracic aorta was excised and quickly mounted in organ-baths as described (Chin-Dusting et al. 2001). Full concentration-contractile curves were obtained to noradrenaline ([…]) with and without test compounds delivered at a concentration of 1 μg/ml. Experiments were repeated in n=5 different rings from 5 different animals. Only one compound at any one concentration was tested on any one ring from any one animal. Sigmoidal dose response curves were fitted for the data and the logEC50 calculated (Prism 4, GraphPad Software). The difference in these values between the presence and absence of test compound was calculated using a two-tailed paired t test. The effects of β-oestrodiol and vehicle alone were examined as a positive and negative control respectively.

In the next data set the test system is Sprague Dawley rats. In words: Oral toxicity of Compound 1 administered daily for 11 days. The class given is in vivo. To be noted: 300 mg/kg and 1000 mg/kg oral daily for 11 days in CMC 0.1%. The procedure:
Oral toxicity of Compound 1 when administered daily for 11 days was investigated. Compound 1 in CMC 0.1% as administered at the very high doses of 300 mg/kg and the limit dose of 1000 mg/kg to groups of four Sprague Dawley rats (two of each gender). Vehicle was administered to a third group.
The formulation of Compound 1 in CMC 0.1% was stable over a seven day period at both 4° C., 25° C. and 40° C. Fresh batches of Compound 1 were supplied after day seven. Bodyweights were measured immediately before administration, then at day eight and again at culling on day 12. All rats were observed daily for signs of toxicity throughout the experimental period. At necropsy, gross examination of the external surface of the body, all orifices and the thoracic and abdominal cavities and their contents was carried out. Liver, kidney, adrenals, spleen and gonads were weighed. Terminal hematology, serum biochemistry and histology of the liver, spleen and bone marrow was done.

A further data set relates to female BALB/c mice. The data set can be described thus: Absence of gastrointestinal toxicity, gavage for 10 days. Format: in vivo. To be noted: 5 mg/kg via gavage for 10 days. The procedure: Compound 2 at 5 mg/kg (n=3) or vehicle (PEG 400:PBS1:1; n=2) was administered via gavage to female BALB/c mice for 10 days. […] Histology of cecum and colon were normal.
The diastereoisomeric mixture of Compounds 3a and 3b in PEG 400:PBS1:1 was administered to 7 week old female BALB/c mice (n=8) by gavage at 20 mg/kg daily for 10 days. There was no vehicle control group for comparison.
Compound 4 at 5 mg/kg (n=3) or vehicle (n=2, PEG:PBS 1:1) was administered via gavage to female BALB/c mice for 10 days. […] Histology of cecum and colon were normal.

In data set [3] the test system is inflammed rat air pouches (serum-treated zymozan). The data set can be described thus: Rat air pouch assay. Format: in vivo, rats (Dark Agouti). To be noted: At 1 mM application.

As to `O=C1c2ccc(O)c(Br)c2OCC1c1ccc(O)cc1` (stereo not drawn) [Compound 1, 3-(4-hydroxyphenyl)-7-hydroxy-8-bromo-chroman-4-one], the “thromboxane synthase inhibition (TXB2 synthesis after exogenous PGH2), selectivity in words” value on TX synthase (TXS) is “selective thromboxane synthase inhibitors”. Besides, the “PGE2 and TXB2 responses of colons cultured in the presence of ConA” value in data set [1] (ConA 10 μg/ml) is “reduce these responses, although not significantly so”. In data set [1] (cultured in the absence of mitogenic stimulation, day 6 and day 9 (p<0.05)), the “TXB2 production by colons versus DSS + vehicle” value was “less TXB2”. The “PGE2 production by colons versus DSS + vehicle” value in data set [1] (cultured in the absence of mitogenic stimulation, day 9 and day 13) is “less PGE2”. Also, the “contractile response (logEC50) of the aortic ring to noradrenaline compared with vehicle” value in data set [2] is given as “significantly inhibited”. The evidence of toxicity entry in the data set on Sprague Dawley rats was “no evidence of toxicity of any kind”.

As to `Oc1ccc(C2COc3c(ccc(O)c3O)C2O)cc1` (stereo not drawn) [Compound 2], the “thromboxane synthase inhibition (TXB2 synthesis after exogenous PGH2), selectivity in words” value on TX synthase (TXS) is recorded as “selective thromboxane synthase inhibitors”. In the data set on female BALB/c mice, the adverse clinical signs result is “no adverse clinical signs”; the “body weight changes versus vehicle” value is on record as “similar”; the “gross pathological changes at necropsy” value is “no gross pathological changes”; the “histology of cecum and colon” value was “normal”. Also, the “number of polymorphs in the tissue sections, in words” value in data set [3] is listed as “suppressed the number of polymorphs”.

For `O=C1c2cc(Cl)c(O)cc2OCC1c1ccc(O)cc1` (stereo not drawn) [Compound 4], on TX synthase (TXS), the “thromboxane synthase inhibition (TXB2 synthesis after exogenous PGH2), selectivity in words” value is given as “selective thromboxane synthase inhibitors”. Besides, in the data set on female BALB/c mice, the adverse clinical signs result is “no adverse clinical signs”; the “body weight changes versus vehicle” value is “similar”; the “gross pathological changes at necropsy” value is on record as “no gross pathological changes”; the “histology of cecum and colon” value was “normal”. Moreover, the “number of polymorphs in the tissue sections, in words” value in data set [3] was “suppressed the number of polymorphs”.
